Measured values as given in patent US12606554B2, “Compounds and pharmaceutical compositions thereof for the treatment of diseases” (ONCO3R Therapeutics BV, priority 2019, dated 2026).

How the values were obtained:
[1] = test system: LPS triggered IL-10 secretion in monocyte-derived macrophages (MdM); assay: MdM assay: LPS-triggered IL-10 (ELISA); assay type: cell-based, human; details: LPS 200 ng/mL, maximal fold change vs LPS only
Description: (§1) SIK inhibition inhibits TNFα and increases IL-10 release in LPS triggered monocyte-derived macrophages (MdM) and dendritic cells (MdDCs) (Clark et al. 2012; Sundberg et al. 2014; Ozanne et al. 2015). This assay evaluates illustrative compounds of the invention for their inhibition of LPS-induced TNFα and LPS triggered IL-10 secretion in monocyte-derived macrophages.
(§2) PBMCs are isolated from human blood samples (buffycoats). The buffy coat is aseptically transferred into a 50 mL Falcon tube, and diluted ½ in PBS. Falcon tubes are filled with 20 mL Lymphoprep™, on top of which 25 mL of the buffy coat is carefully added, tubes are centrifuged for 35 min at 400 g in temperature controlled centrifuge, without brake, at 25° C. PBMCs are aspirated from the white interface layer between sample and Lymphoprep™. PBMCs are washed five times in PBS. Cells are resuspended in RPMI 1640 complete medium supplemented with 10% FBS, 1% P/S, and cell density is determined using a hematologic analyzer (Sysmex XS-500i). […]
(§3) The columns are removed from the magnets, and 5 mL of Miltenyi buffer are added to the column to flush out the CD14+ fraction by pushing the plunger into the column. […] The obtained cell pellet is resuspended in 10 mL RPMI w/o FBS, and cell density is determined using a hematologic analyser (Sysmex XS-500i). […]

[2] = test system: LPS triggered IL-10 secretion in monocytes; assay: Monocytes assay: LPS-triggered IL-10 (ELISA); assay type: cell-based, human; details: LPS 200 ng/mL, supernatant after 4 h, maximal fold change vs LPS only
Description: as §1, with “monocytes.” for “monocyte-derived macrophages.”
as §2, §3

Structure (SMILES) | IL-10 FCmax median [1] | IL-10 FCmax median [2]
COc1cc(-c2cnn3cc(OCCN4CCOCC4)ccc23)cc2c1C(=O)N(CC(F)(F)F)CC2 [Cpd 1, 8-methoxy-6-[6-(2-morpholinoethoxy)pyrazolo[1,5-a]pyridin-3-yl]-2-(2,2,2-trifluoroethyl)-3,4-dihydroisoquinolin-1-one] | ++ (>1.5-4.5) | +++ (>4.5)
COc1cc(-c2cnn3cc(OC(C)(C)CO)ccc23)cc(OC(F)F)c1C(=O)N[C@@H]1C[C@@H]1F [Cpd 2, 2-(difluoromethoxy)-N-[(1R,2S)-2-fluorocyclopropyl]-4-[6-(2-hydroxy-1,1-dimethyl-ethoxy)pyrazolo[1,5-a]pyridin-3-yl]-6-methoxy-benzamide] | – | + (≤1.5)
